Like-named read-outs stand apart in the source and are kept apart here.

Assay [1] concerns the target T1, His-ZZ-DYRK1B kinase domain (DYRK1B protein) (Homo sapiens, UniProt Q9Y463). To be noted: read-out: DYRK1B Transient heating; inhibitor.
Assay [2] deals with T1, His-ZZ-DYRK1B kinase domain (DYRK1B protein). The conditions noted are these: read-out: DYRK1B –; inhibitor.
Assay [3] shares this target. The assay is described as follows: luminescent kinase assay after transient heating. It is filed as biochemical. To be noted: […] °C […] sec heating with compound, then ATP […], DYRKtide […], pH […].
Assay [4] deals with T2, His-ZZ-DYRK1A kinase domain (DYRK1A protein) (Homo sapiens, UniProt Q13627). Description: luminescent kinase assay after transient heating. It counts as biochemical.
Assay [5] concerns the target T2, His-ZZ-DYRK1A kinase domain (DYRK1A protein). The conditions noted are these: read-out: DYRK1A –; without transient heating; inhibitor.
The target is the same in assay [6]. The conditions noted are these: read-out: DYRK1A Transient heating; with transient heating (20 sec); inhibitor.
For assay [7] the target is unchanged. Description: biochemical. The conditions noted are these: read-out: kon.
Assay [8] deals with T1, His-ZZ-DYRK1B kinase domain (DYRK1B protein). The assay is described as follows: biochemical. To be noted: read-out: kon.
The target is the same in assay [9]. Description: biochemical. To be noted: read-out: koff.
Assay [10] concerns the target T2, His-ZZ-DYRK1A kinase domain (DYRK1A protein). Description: biochemical. To be noted: read-out: koff.
Assay [11] addresses T1, His-ZZ-DYRK1B kinase domain (DYRK1B protein). To be noted: read-out: DYRK1B Transient heating; with transient heating (20 sec); inhibitor.
The target is the same in assay [12]. To be noted: read-out: DYRK1B –; without transient heating; inhibitor.

In the case of `C#Cc1cc(/C=C2\SC(=S)NC2=O)ccc1O` [compound 12, RD0562], the IC50 in assay [1] and in assay [2] was 23 µM each time.

Turning to `COc1ccc(/C=C2\NC(=S)NC2=O)cc1C#C[Si](C)(c1ccccc1)c1ccccc1` [compound 4, RD1408], the IC50 in assay [1] amounted to 14 µM.

Consider `C#Cc1cc(/C=C2\SC(=S)NC2=O)ccc1OC` [compound 11, RD0448], for which the IC50 in [3] was 16 µM; in assay [2] it was 52 µM; in [4], 38 µM.

As for `COc1ccc(/C=C2\SC(=S)NC2=O)cc1/C=C/C1CCCCC1` [dscy-dFINDY], the IC50 is > 32 µM in assay [5] and 4.1 µM in [6].

Regarding `COc1ccc(/C=C2\SC(=S)NC2=O)cc1` [compound 13, RD1486], the IC50 in [1] was determined as 17 µM; in assay [2], 9.7 µM.

The term kon denotes the second-order rate constant of association. One may read the koff as the first-order rate constant of dissociation. Turning to `COc1ccc(/C=C2\SC(=S)NC2=O)cc1C#C[Si](C)(c1ccccc1)c1ccccc1` [compound 2, dp-FINDY], the IC50 was 2.5 µM in assay [1], > 32 µM in [2] and 2.6 µM in [4]. Further, the kon in assay [7] is 0.28 M⁻¹ s⁻¹; in assay [8] it was 200 M⁻¹ s⁻¹. Besides, the koff turned out to be 0.00012 s⁻¹ in assay [9] and 2.2e-07 s⁻¹ in assay [10].

`COc1ccc(/C=C2\SC(=S)NC2=O)cc1/C=C/C(C)(C)C` [dstb-dFINDY]: the IC50 in [11] is 7.4 µM; in [5], > 32 µM; in [6], > 32 µM.

On to `COc1ccc(/C=C2\SC(=S)NC2=O)cc1C#C[Si](c1ccccc1)(c1ccccc1)c1ccccc1` [tp-FINDY], for which the IC50 in [11] is 5.8 µM; in assay [12] it was > 32 µM.

As for `COc1ccc(/C=C2\SC(=S)NC2=O)cc1C#C[Si]([Si](C)(C)C)([Si](C)(C)C)[Si](C)(C)C` [ts-FINDY], the IC50 in assay [11] is 4.6 µM; in [12], > 32 µM.

For `COc1ccc(/C=C2\SC(=S)NC2=O)cc1/C=C/[Si](C)(C)C` [dFINDY], the IC50 in assay [5] was > 32 µM; in assay [6], 4.9 µM.

`CCOc1cc(/C=C2\SC(=S)NC2=O)ccc1O` [compound 5, RD0392]: the IC50 in assay [1] was determined as 3.5 µM; in assay [2] it was 3.6 µM.
